The target of this assay is phosphorylated active hERK2 enzyme (Homo sapiens (Human), UniProt P28482). The assay is described as follows: Active Human ERK2 (hERK2) Activity Assay (IMAP-FP). Format: biochemical. The following applies: Table 6, 0.5 nM hERK2, 30 μM ATP, 10 point titration, read-out: AERK2 IC50. Summed up:
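IMAP fluorescence-polarization kinase assay: 0.5 nM activated hERK2 with 900 nM unlabeled plus 80 nM labeled peptide and 30 μM ATP, reacted 60 min. Quenched with IMAP beads in binding buffer with 24 mM NaCl; FP read after 60 min equilibration.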

Each structure is given as a SMILES string.

From patent US9233979B2, “Compounds that are ERK inhibitors” (Merck Sharp & Dohme Corp., priority 2012, dated 2016) come the findings set out here.

Chain of phosphorylated active hERK2 enzyme (P28482 whole entry): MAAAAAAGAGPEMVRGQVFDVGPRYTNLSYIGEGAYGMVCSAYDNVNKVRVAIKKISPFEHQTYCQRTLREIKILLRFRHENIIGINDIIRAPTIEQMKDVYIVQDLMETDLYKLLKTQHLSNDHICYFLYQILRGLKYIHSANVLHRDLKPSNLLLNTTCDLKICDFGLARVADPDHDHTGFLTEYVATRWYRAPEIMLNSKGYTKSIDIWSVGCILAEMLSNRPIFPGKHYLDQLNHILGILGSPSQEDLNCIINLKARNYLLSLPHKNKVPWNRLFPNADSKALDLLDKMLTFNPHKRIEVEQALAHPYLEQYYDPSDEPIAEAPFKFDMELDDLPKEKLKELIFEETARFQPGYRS

For the compound `CC(C)(O)[C@@H](NC(=O)Nc1cc2[nH]nc(NC(=O)OC3CCOCC3)c2cn1)c1ccc(F)cc1` [Example 400, tetrahydro-2H-pyran-4-yl [6-({[(1S)-1-(4-fluorophenyl)-2-hydroxy-2-methylpropyl]-carbamoyl}amino)-1H-pyrazolo[4,3-c]pyridin-3-yl]-carbamate], the IC50 stood at 1.6 nM. For `C[C@@H](NC(=O)Nc1cc2[nH]nc(NC(=O)OC3CCOC3)c2cn1)c1ccc(F)cc1` (stereo partly drawn) [Example 401, tetrahydrofuran-3-yl [6-({[(1R)-1-(4-fluorophenyl)ethyl]carbamoyl}amino)-1H-pyrazolo[4,3-c]pyridin-3-yl]-carbamate] the value was 15.3 nM; for `CC(C)(O)[C@@H](NC(=O)Nc1cc2[nH]nc(NC(=O)OC3CCOC3)c2cn1)c1ccc(F)cc1` (stereo partly drawn) [Example 402, tetrahydrofuran-3-yl [6-({[(1S)-1-(4-fluorophenyl)-2-hydroxy-2-methyl-propyl]carbamoyl}amino)-1H-pyrazolo[4,3-c]-pyridin-3-yl]-carbamate], 2.9 nM. For `CC(C)OC(=O)Nc1n[nH]c2cc(NC(=O)N[C@@H](c3ccc(F)cc3)C(C)(C)O)ncc12` [Example 403, 1-methylethyl [6-({[(1S)-1-(4-fluorophenyl)-2-hydroxy-2-methyl-propyl]carbamoyl}amino)-1H-pyrazolo[4,3-c]-pyridin-3-yl]-carbamate] the value was 1.1 nM; for `C[C@@H](NC(=O)Nc1cc2[nH]nc(NC(=O)OCCO)c2cn1)c1ccc(F)cc1` [Example 404, 2-hydroxyethyl [6-({[(1R)-1-(4-fluorophenyl)ethyl]carbamoyl}amino)-1H-pyrazolo[4,3-c]pyridin-3-yl]-carbamate], 5.3 nM. For `C[C@@H](NC(=O)Nc1cc2[nH]nc(NC(=O)OCC(F)F)c2cn1)c1ccc(F)cc1` [Example 405, 2,2-difluoroethyl [6-({[(1R)-1-(4-fluorophenyl)ethyl]carbamoyl}amino)-1H-pyrazolo[4,3-c]pyridin-3-yl]-carbamate], the half-maximal inhibitory concentration (IC50) came out at 21.6 nM. As for `CC(C)(O)[C@@H](NC(=O)Nc1cc2[nH]nc(NC(=O)OCC(F)F)c2cn1)c1ccc(F)cc1` [Example 406, 2,2-difluoroethyl [6-({[(1S)-1-(4-fluorophenyl)-2-hydroxy-2-methyl-propyl]carbamoyl}amino)-1H-pyrazolo[4,3-c]-pyridin-3-yl]-carbamate], the figure is 1.5 nM; as for `CC(Nc1n[nH]c2cc(NC(=O)N[C@H](C)c3ccccc3)ncc12)C(F)(F)F` (stereo partly drawn) [Example 407, 1-[(1R)-1-phenylethyl]-3-{3-[(2,2,2-trifluoro-1-methylethyl)amino]-1H-pyrazolo[4,3-c]pyridin-6-yl}urea], 2.4 nM; as for `C[C@@H](NC(=O)Nc1cc2[nH]nc(N3CCCC3=O)c2cn1)c1ccccc1` [Example 408, 1-[3-(2-oxopyrrolidin-1-yl)-1H-pyrazolo[4,3-c]-pyridin-6-yl]-3-[(1R)-1-phenylethyl]urea], 101 nM. For `C[C@@H](NC(=O)Nc1cc2[nH]nc(N3CCC(O)CC3)c2cn1)c1ccccc1` [Example 409, 1-[3-(4-hydroxypiperidin-1-yl)-1H-pyrazolo[4,3-c]-pyridin-6-yl]-3-[(1R)-1-phenylethyl]urea] the value was 2.4 nM. For `COC[C@@H](NC(=O)Nc1cc2[nH]nc(N3CCC(O)CC3)c2cn1)c1ccccc1` [Example 410, 1-[3-(4-hydroxypiperidin-1-yl)-1H-pyrazolo[4,3-c]-pyridin-6-yl]-3-[(1S)-2-methoxy-1-phenylethyl]urea] the value was 1.2 nM; for `CCNc1n[nH]c2cc(NC(=O)N[C@@H]3CCC[C@H]3OC)ncc12` [Example 411, 1-[3-(ethylamino)-1H-pyrazolo[4,3-c]pyridin-6-yl]-3-[(1R,2R)-2-methoxy-cyclopentyl]urea], 99.3 nM. Regarding `CCNc1n[nH]c2cc(NC(=O)NC(C(=O)N(CC)CC)c3ccc(F)cc3)ncc12` (centres unmarked) [Example 412, N,N-diethyl-2-({[3-(ethylamino)-1H-pyrazolo[4,3-c]-pyridin-6-yl]-carbamoyl}amino)-2-(4-fluoro-phenyl)acetamide], the half-inhibitory concentration (IC50) came to 421 nM.

Regarding `COC1CCN(c2n[nH]c3cc(NC(=O)N[C@H](C)c4ccccc4)ncc23)CC1` [Example 413, 1-[3-(4-methoxypiperidin-1-yl)-1H-pyrazolo[4,3-c]-pyridin-6-yl]-3-[(1R)-1-phenylethyl]urea], the IC50 was 4.5 nM. As for `CCNc1n[nH]c2cc(NC(=O)NC(C(=O)N(C)C)c3ccc(F)cc3)ncc12` (centres unmarked) [Example 414, 2-({[3-(ethylamino)-1H-pyrazolo[4,3-c]-pyridin-6-yl]-carbamoyl}amino)-2-(4-fluorophenyl)-N,N-dimethyl-acetamide], the figure is 413 nM; as for `COC[C@@H](NC(=O)Nc1cc2[nH]nc(N3CCC(OC)CC3)c2cn1)c1ccccc1` [Example 415, 1-[(1S)-2-methoxy-1-phenylethyl]-3-[3-(4-methoxypiperidin-1-yl)-1H-pyrazolo[4,3-c]pyridin-6-yl]urea], 1 nM; as for `CO[C@@H]1CCC[C@H]1NC(=O)Nc1cc2[nH]nc(N)c2cn1` [Example 416, 1-(3-amino-1H-pyrazolo[4,3-c]pyridin-6-yl)-3-[(1R,2R)-2-methoxy-cyclopentyl]urea], 483 nM. As to `COC[C@@H](NC(=O)Nc1cc2[nH]nc(NC(C)C(F)(F)F)c2cn1)c1ccccc1` (stereo partly drawn) [Example 417, 1-[(1S)-2-methoxy-1-phenylethyl]-3-{3-[(2,2,2-trifluoro-1-methylethyl)-amino]-1H-pyrazolo[4,3-c]-pyridin-6-yl}urea], the IC50 turned out to be 0.6 nM. With `CC(Nc1n[nH]c2cc(NC(=O)N[C@H](C)c3ccccc3)ncc12)C(F)(F)F` (stereo partly drawn) [Example 418, 1-[(1R)-1-phenylethyl]-3-{3-[(2,2,2-trifluoro-1-methylethyl)amino]-1H-pyrazolo[4,3-c]pyridin-6-yl}urea], the half-maximal inhibitory concentration (IC50) was 3.2 nM. Turning to `CC(Nc1n[nH]c2cc(NC(=O)N[C@H](C)c3ccccc3)ncc12)C(F)(F)F` (stereo partly drawn) [Example 419, 1-[(1R)-1-phenylethyl]-3-{3-[(2,2,2-trifluoro-1-methylethyl)amino]-1H-pyrazolo[4,3-c]pyridin-6-yl}urea], the IC50 was determined as 2.2 nM.

Regarding `CCNc1n[nH]c2cc(NC(=O)N[C@@H](c3ccccc3)C(C)(C)O)ncc12` [Example 420, 1-[3-(ethylamino)-1H-pyrazolo[4,3-c]pyridin-6-yl]-3-[(1S)-2-hydroxy-2-methyl-1-phenylpropyl]urea], the 50% inhibitory concentration (IC50) came out at 2.1 nM.

For the compound `COC[C@@H](NC(=O)Nc1cc2[nH]nc(NC(C)C(F)(F)F)c2cn1)c1ccccc1` (stereo partly drawn) [Example 421, 1-[(1S)-2-methoxy-1-phenylethyl]-3-{3-[(2,2,2-trifluoro-1-methylethyl)-amino]-1H-pyrazolo[4,3-c]-pyridin-6-yl}urea], the IC50 is 0.6 nM.

Turning to `COC[C@@H](NC(=O)Nc1cc2[nH]nc(NC(C)C(F)(F)F)c2cn1)c1ccccc1` (stereo partly drawn) [Example 422, 1-[(1S)-2-methoxy-1-phenylethyl]-3-{3-[(2,2,2-trifluoro-1-methylethyl)-amino]-1H-pyrazolo[4,3-c]-pyridin-6-yl}urea], the IC50 turned out to be 0.8 nM. For `C[C@@H](NC(=O)Nc1cc2[nH]nc(N3CCC(C#N)CC3)c2cn1)c1ccccc1` [Example 423, 1-[3-(4-cyanopiperidin-1-yl)-1H-pyrazolo[4,3-c]-pyridin-6-yl]-3-[(1R)-1-phenylethyl]urea] the value was 9.7 nM; for `C[C@@H](NC(=O)Nc1cc2[nH]nc(N3CCC(C)(O)CC3)c2cn1)c1ccccc1` [Example 424, 1-[3-(4-hydroxy-4-methylpiperidin-1-yl)-1H-pyrazolo[4,3-c]-pyridin-6-yl]-3-[(1R)-1-phenylethyl]urea], 21.5 nM; for `CC(C)(O)[C@@H](NC(=O)Nc1cc2[nH]nc(N)c2cn1)c1ccccc1` [Example 425, 1-(3-amino-1H-pyrazolo[4,3-c]-pyridin-6-yl)-3-[(1S)-2-hydroxy-2-methyl-1-phenylpropyl]urea], 14.9 nM. For `COC1CCN(c2n[nH]c3cc(NC(=O)N[C@H](COC(F)F)c4ccccc4)ncc23)CC1` [Example 426, 1-[(1S)-2-(difluoromethoxy)-1-phenylethyl]-3-[3-(4-methoxy-piperidin-1-yl)-1H-pyrazolo[4,3-c]-pyridin-6-yl]urea] the value was 1 nM; for `CSC1CCN(c2n[nH]c3cc(NC(=O)N[C@H](C)c4ccccc4)ncc23)CC1` [Example 427, 1-{3-[4-(methylsulfanyl)-piperidin-1-yl]-1H-pyrazolo[4,3-c]-pyridin-6-yl}-3-[(1R)-1-phenylethyl]urea], 15.1 nM; for `CC(Nc1n[nH]c2cc(NC(=O)N[C@H](COC(F)F)c3ccccc3)ncc12)C(F)(F)F` (stereo partly drawn) [Example 428, 1-[(1S)-2-(difluoromethoxy)-1-phenylethyl]-3-{3-[(2,2,2-trifluoro-1-methylethyl)-amino]-1H-pyrazolo[4,3-c]-pyridin-6-yl}urea], 1.3 nM.

Regarding `CCNc1n[nH]c2cc(NC(=O)NC(c3ccc(F)cc3)C(C)(C)O)ncc12` (centres unmarked) [Example 429, 1-[3-(ethylamino)-1H-pyrazolo[4,3-c]pyridin-6-yl]-3-[1-(4-fluorophenyl)-2-hydroxy-2-methylpropyl]urea], the IC50 was 1.1 nM. For `CCNc1n[nH]c2cc(NC(=O)NC(c3ccc(F)cc3)C(C)(C)OC)ncc12` (centres unmarked) [Example 430, 1-[3-(ethylamino)-1H-pyrazolo[4,3-c]pyridin-6-yl]-3-[1-(4-fluorophenyl)-2-methoxy-2-methylpropyl]urea] the value was 0.6 nM; for `CCNc1n[nH]c2cc(NC(=O)N[C@@H](c3ccccc3)C(C)(C)OC)ncc12` [Example 431, 1-[3-(ethylamino)-1H-pyrazolo[4,3-c]pyridin-6-yl]-3-[(1S)-2-methoxy-2-methyl-1-phenylpropyl]urea], 0.5 nM.
